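In this assay, cells in 96-well plates receive the compound at five concentrations for 48 hours. Endpoints are linearly interpolated between the surrounding concentrations. TGI: concentration producing complete growth inhibition.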
What was measured:
Experiment in all cases: NCI anticancer screen, dose series, 48 h
[1] = test system: NCI-H522 lung
[2] = test system: UO-31 renal
[3] = test system: TK-10 renal
[4] = test system: U251 CNS
[5] = test system: HCT-15 colon
[6] = test system: IGROV1 ovarian
[7] = test system: SK-MEL-2 melanoma
[8] = test system: MDA-MB-435
[9] = test system: OVCAR-5 ovarian
[10] = test system: K-562 leukemia
[11] = test system: SR leukemia
[12] = test system: OVCAR-8 ovarian
[13] = test system: SF-295 CNS
[14] = test system: CCRF-CEM leukemia
[15] = test system: UACC-257 melanoma
[16] = test system: NCI/ADR-RES ovarian
[17] = test system: SNB-75 CNS
[18] = test system: ACHN renal
[19] = test system: SN12C renal
[20] = test system: RXF 393 renal
[21] = test system: 786-0 renal
[22] = test system: HT29 colon
[23] = test system: NCI-H226 lung
[24] = test system: A549 NSCLC
[25] = test system: UACC-62 melanoma
[26] = test system: SK-MEL-5 melanoma
[27] = test system: T-47D breast
[28] = test system: NCI-H23 lung
[29] = test system: A498 renal
[30] = test system: KM12 colon
[31] = test system: SW-620 colon
[32] = test system: NCI-H460 lung
[33] = test system: SK-OV-3 ovarian
[34] = test system: SK-MEL-28 melanoma
[35] = test system: OVCAR-4 ovarian
[36] = test system: SNB-19 CNS
[37] = test system: COLO 205 colon
[38] = test system: RPMI-8226 leukemia
[39] = test system: MALME-3M melanoma
[40] = test system: SF-539 CNS
[41] = test system: HCC-2998 colon
[42] = test system: SF-268 CNS
[43] = test system: MOLT-4 leukemia
[44] = test system: LOX IMVI melanoma
[45] = test system: DU-145 prostate
[46] = test system: MDA-N
[47] = test system: PC-3 prostate
[48] = test system: HOP-62 NSCLC
[49] = test system: HL-60(TB) leukemia
[50] = test system: CAKI-1 renal
[51] = test system: EKVX NSCLC
[52] = test system: HS 578T breast
[53] = test system: HCT-116 colon
[54] = test system: MDA-MB-231 breast
[55] = test system: M14 melanoma
[56] = test system: MCF7 breast
[57] = test system: OVCAR-3 ovarian

Cc1cc(C[C@H]2O[C@@H]3OC(C)(C)O[C@@H]3[C@H]3OC(C)(C)O[C@H]32)c2ccccc2n1
TGI [1]: 94.4 µM
TGI [2]: > 100 µM
TGI [3]: > 100 µM
TGI [4]: > 100 µM
TGI [5]: > 100 µM
TGI [6]: > 100 µM
TGI [7]: > 100 µM
TGI [8]: > 100 µM
TGI [9]: > 100 µM
TGI [10]: > 100 µM
TGI [11]: > 100 µM
TGI [12]: > 100 µM
TGI [13]: > 100 µM
TGI [14]: > 100 µM
TGI [15]: > 100 µM
TGI [16]: > 100 µM
TGI [17]: > 100 µM
TGI [18]: > 100 µM
TGI [19]: > 100 µM
TGI [20]: > 100 µM
TGI [21]: > 100 µM
TGI [22]: > 100 µM
TGI [23]: > 100 µM
TGI [24]: > 100 µM
TGI [25]: > 100 µM
TGI [26]: > 100 µM
TGI [27]: > 100 µM
TGI [28]: > 100 µM
TGI [29]: > 100 µM
TGI [30]: > 100 µM
TGI [31]: > 100 µM
TGI [32]: > 100 µM
TGI [33]: > 100 µM
TGI [34]: > 100 µM
TGI [35]: > 100 µM
TGI [36]: > 100 µM
TGI [37]: > 100 µM
TGI [38]: > 100 µM
TGI [39]: > 100 µM
TGI [40]: > 100 µM
TGI [41]: > 100 µM
TGI [42]: > 100 µM
TGI [43]: > 100 µM
TGI [44]: > 100 µM
TGI [45]: > 100 µM
TGI [46]: > 100 µM
TGI [47]: > 100 µM
TGI [48]: > 100 µM
TGI [49]: 51.5 µM
TGI [50]: > 100 µM
TGI [51]: > 100 µM
TGI [52]: > 100 µM
TGI [53]: > 100 µM

O=C1C(=Nc2ccc(Nc3ccccc3)cc2)Oc2ccccc21
TGI [1]: 4.3 µM
TGI [2]: 5.58 µM
TGI [3]: 12.2 µM
TGI [4]: 4.27 µM
TGI [5]: 13.2 µM
TGI [6]: 5.96 µM
TGI [7]: 14.4 µM
TGI [8]: 3.45 µM
TGI [9]: 10.1 µM
TGI [10]: 11.4 µM
TGI [11]: 4.71 µM
TGI [12]: 6.07 µM
TGI [13]: 12.1 µM
TGI [14]: 4.92 µM
TGI [15]: 4.56 µM
TGI [17]: 8.52 µM
TGI [18]: 9.93 µM
TGI [54]: 4.51 µM
TGI [19]: 4.62 µM
TGI [20]: 4.89 µM
TGI [21]: 3.37 µM
TGI [22]: 4.53 µM
TGI [23]: 16.8 µM
TGI [24]: 10.7 µM
TGI [25]: 10.7 µM
TGI [55]: 5.38 µM
TGI [56]: 5.74 µM
TGI [26]: 16.1 µM
TGI [27]: 9.57 µM
TGI [28]: 3.93 µM
TGI [29]: 21 µM
TGI [30]: 4.03 µM
TGI [31]: 4.67 µM
TGI [32]: 30.5 µM
TGI [33]: 23 µM
TGI [34]: 19.3 µM
TGI [35]: 6.8 µM
TGI [36]: 8.25 µM
TGI [37]: 3.01 µM
TGI [57]: 4.42 µM
TGI [39]: 9.71 µM
TGI [40]: 8.41 µM
TGI [41]: 23.4 µM
TGI [42]: 9.73 µM
TGI [43]: 6.39 µM
TGI [44]: 4.4 µM
TGI [45]: 21 µM
TGI [46]: 7.16 µM
TGI [47]: 8.58 µM
TGI [48]: 22 µM
TGI [49]: 4.9 µM
TGI [50]: 7.58 µM
TGI [51]: 27.7 µM
TGI [53]: 3.18 µM

From PubChem BioAssay (NCI)
